In US9504729B2, “Antiangiogenic small molecules and methods of use” (The United States of America, as represented by the …, priority 2009, dated 2016):
Where a name gives a salt, the structure may show the parent alone. Read-outs that look alike come from different tables or passages of the source.

Tests used:
endothelial cells = experiment: Primary screening: cell-based growth HTS and tube formation HTS (bioactivity class)
Protocol: All assays were performed in clear bottom black 96-well plates. The plates were always arranged to include a column for negative controls (column 1), a column for positive controls (column 12), and 10 columns for evaluation of 80 compounds. In order to increase stringency and avoid false positives in the HTS assays, all compounds were tested at a low final concentration of 1 μM.
In summary, 1,000 cells/well were seeded in the 96-well plates described above. Cells in columns 2-12 were seeded in 10% FBS and cells in column 1 (negative control) were seeded in 0% FBS. Small molecules (80 per plate) were added in columns 2-11 at a final concentration of 1 μM (both positive and negative controls were exposed to the same percentage of DMSO in wells containing test compounds). The fluorescence emitted by every well was measured spectrophotometrically (Infinite M200, TECAN®, Mannedorf, Switzerland) every 24 hours for 5-7 days.
In summary, 20,000 cells/well were seeded on top of 50 μl of pre-gelled GELTREX® gel matrix (Invitrogen, Carlsbad, Calif.). All cells were seeded in 10% FBS. […] Small molecules (80 per plate) were added to columns 2-11 at a final concentration of 1 μM (both positive and negative controls were exposed to the same percentage of DMSO in wells containing test compounds). Plates were incubated for 5-7 hours and automatically imaged with the help of an epifluorescence microscope (Axiovert® 200M, Zeiss) equipped with a motorized stage and AxioVision® (Zeiss) software.
For hit detection, a stringent threshold (sigma 3.5) was applied to avoid false positives.

PAE cells = experiment: Growth dose response (IC50) in PAE; format: cell-based, porcine; conditions: read-out: Growth IC50 (M) in PAE
Excerpt: FIG. 6: Dose response curves were constructed for all the SMs of interest using PAE cells. Data were fitted to non-linear sigmoid curves using GraphPad Prism (GraphPad Software, Inc., La Jolla, Calif.).
Dose response curves were constructed for all the SM of interest using PAE cells. Data were fitted to non-linear sigmoid curves using GraphPad Prism (GraphPad software, Inc.).

PAE = experiment: Apoptosis in PAE; format: cell-based, porcine
in vitro = conditions: pig
KDR(VEGFR2) = KDR(VEGFR2) (Homo sapiens, UniProt P35968); experiment: SelectScreen kinase activity profiling, KDR(VEGFR2); format: biochemical; conditions: VEGFR2 receptor
Excerpt: To characterize the RTK inhibitory activity of the antiangiogenic SMs described herein, 36 compounds were chosen and screened using Invitrogen's SelectScreen® kinase activity profiling service (described on-line at tools.invitrogen.com/content.cfm?pageid=10413#selection). VEGFR1 and FGFR2 RTK inhibitory activities were studied. […] Overall, a small minority of the SMs tested had any substantial kinase inhibitory activity. This observation supports a mechanism of antiangiogenic action other than RTK inhibition for most of the SMs described herein.

Sequence of KDR(VEGFR2) (P35968 20-1356): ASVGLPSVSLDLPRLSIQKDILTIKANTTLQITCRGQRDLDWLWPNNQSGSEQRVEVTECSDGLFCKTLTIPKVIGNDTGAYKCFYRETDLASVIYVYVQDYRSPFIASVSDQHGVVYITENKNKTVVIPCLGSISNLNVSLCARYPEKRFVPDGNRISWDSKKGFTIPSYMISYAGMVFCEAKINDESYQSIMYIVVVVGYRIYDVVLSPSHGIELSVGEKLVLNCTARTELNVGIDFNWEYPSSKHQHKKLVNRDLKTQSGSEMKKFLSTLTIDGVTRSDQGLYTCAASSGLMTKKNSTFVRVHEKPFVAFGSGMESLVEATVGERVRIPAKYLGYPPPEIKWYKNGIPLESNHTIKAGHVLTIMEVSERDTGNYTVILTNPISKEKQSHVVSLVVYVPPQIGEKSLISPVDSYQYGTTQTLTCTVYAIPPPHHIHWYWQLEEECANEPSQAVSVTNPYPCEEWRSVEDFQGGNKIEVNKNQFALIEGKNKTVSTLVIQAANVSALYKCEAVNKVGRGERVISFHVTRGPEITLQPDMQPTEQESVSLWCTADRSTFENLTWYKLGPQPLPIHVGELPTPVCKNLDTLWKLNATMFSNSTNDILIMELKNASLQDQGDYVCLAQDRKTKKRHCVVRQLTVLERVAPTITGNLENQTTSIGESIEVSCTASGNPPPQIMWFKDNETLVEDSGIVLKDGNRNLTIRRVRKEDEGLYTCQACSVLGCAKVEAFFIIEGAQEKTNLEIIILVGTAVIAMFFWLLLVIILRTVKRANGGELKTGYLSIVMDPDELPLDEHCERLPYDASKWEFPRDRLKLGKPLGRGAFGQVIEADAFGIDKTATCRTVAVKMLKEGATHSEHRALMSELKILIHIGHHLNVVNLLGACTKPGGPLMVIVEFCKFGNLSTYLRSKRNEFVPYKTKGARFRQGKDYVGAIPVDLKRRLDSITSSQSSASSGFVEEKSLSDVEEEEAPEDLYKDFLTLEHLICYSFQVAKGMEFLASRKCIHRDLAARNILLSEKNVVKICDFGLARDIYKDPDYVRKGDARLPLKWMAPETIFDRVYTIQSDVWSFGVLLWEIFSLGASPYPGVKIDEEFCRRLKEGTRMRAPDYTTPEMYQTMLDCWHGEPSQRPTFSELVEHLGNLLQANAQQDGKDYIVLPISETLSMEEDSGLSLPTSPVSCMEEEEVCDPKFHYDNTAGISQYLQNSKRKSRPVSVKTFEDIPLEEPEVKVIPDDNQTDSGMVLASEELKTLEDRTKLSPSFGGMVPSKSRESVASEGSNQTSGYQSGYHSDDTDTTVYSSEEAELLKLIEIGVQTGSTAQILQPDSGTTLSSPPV

Compound	IC50 (PAE cells; Sus scrofa, PAE cells)	cytotoxicity (in vitro)	further results
3-[(2,4- dimethylphenyl)carbamoyl]naphthalen-2- olate; N-(2,4-dimethylphenyl)-3- hydroxynaphthalene-2-carboxamide; nickel(2+) [Compound 37]			Bioactivity (endothelial cells): 1; IC50 (PAE cells): > 1e-06 M; Apoptosis PAE (RFU) (PAE): 2.037 RFU
Nc1ncnc2c(C3OC(CO)C(O)C3O)nsc12 (centres unmarked) [Compound 7, 2-(7-amino-[1,2]thiazolo[4,5-d]pyrimidin-3-yl)-5-(hydroxymethyl)oxolane-3,4-diol]	1.12e-11 M	7.32%	
N=C1C=CC(=C(c2ccc(N)cc2)c2ccc(N)cc2)C=C1 [Compound 8, [4-[(4-aminophenyl)-(4-iminocyclohexa-2,5-dien-1-ylidene)methyl]phenyl]azanium chloride]	> 1e-06 M	8.51%	
CN1CCN(c2ccc([N+](=O)[O-])c3no[n+]([O-])c23)CC1 [Compound 9, 7-(4-methylpiperazin-1-yl)-4-nitro-1-oxido-2,1,3-benzoxadiazol-1-ium]	2.3e-10 M	7.7%	
Nc1ccn(C2OC(COP(=O)(O)O)C(O)C2O)c(=O)n1 (centres unmarked) [Compound 10, [5-(4-amino-2-oxopyrimidin-1-yl)-3,4-dihydroxyoxolan-2-yl]methyl dihydrogen phosphate]	> 1e-06 M	6.79%	
FC(F)(F)c1cccc(-c2nc3nc(Cl)c(Cl)nc3[nH]2)c1 [Compound 12, 5,6-dichloro-2-[3-(trifluoromethyl)phenyl]-1H-imidazo[4,5-b]pyrazine]	3.02e-10 M	6.73%	
O=C1C(=Cc2cccnc2)SC(=S)N1Cc1ccco1 [Compound 14, 3-(furan-2-ylmethyl)-5-(pyridin-3-ylmethylidene)-2-sulfanylidene-1,3-thiazolidin-4-one]	1.89e-09 M	6.51%	
OC(c1cc(-c2ccc(Cl)cc2)nc2ccccc12)C1CCCCN1 (centres unmarked) [Compound 15, [2-(4-chlorophenyl)quinolin-4-yl]-piperidin-2-ylmethanol]	6.55e-10 M	7.93%	
Clc1ccc2c(NCCNc3ccnc4cc(Cl)ccc34)ccnc2c1 [Compound 16, N,N′-bis(7-chloroquinolin-4-yl)ethane-1,2-diamine]	> 1e-06 M	6.78%	
Cc1c(Cl)cc(C(C)(C)C)c(O)c1Cc1c(C)c(Cl)cc(C(C)(C)C)c1O [Compound 17, 6-tert-butyl-2-[(3-tert-butyl-5-chloro-2-hydroxy-6-methylphenyl)methyl]-4-chloro-3-methylphenol]	3.98e-10 M	7.34%	
C[C@H]1CCC/C=C/[C@@H]2C[C@H](OC(=O)CN(C)C)C[C@H]2[C@H](O)/C=C/C(=O)O1 [Compound 18, [(1R,2R,3E,7S,11E,13S,15S)-2-hydroxy-7-methyl-5-oxo-6-oxabicyclo[11.3.0]hexadeca-3,11-dien-15-yl]2-(dimethylamino)acetate]	4.64e-10 M	7.6%	
Cc1cc(O)c(C(C)C)cc1C1(c2cc(C(C)C)c(O)cc2C)OC(=O)c2ccccc21 [Compound 19, 3,3-bis(4-hydroxy-2-methyl-5-propan-2-ylphenyl)-2-benzofuran-1-one]	9.63e-10 M	6.56%	
CC1(C)N=C(N)N=C(N)N1c1cccc(CSc2ccccc2)c1 [Compound 21, 6,6-dimethyl-1-[3-(phenylsulfanylmethyl)-phenyl]-1,3,5-triazine-2,4-diamine hydrochloride]	2.29e-11 M	6.57%	
Cc1cc(OCc2nc(N)nc(N)c2-c2ccc(Cl)c(Cl)c2)ccc1[N+](=O)[O-] [Compound 22, 5-(3,4-dichlorophenyl)-6-[(3-methyl-4-nitrophenoxy)methyl]pyrimidine-2,4-diamine]	1.54e-12 M	6.75%	
CC1(C)N=C(N)N=C(N)N1c1cccc(OCc2cccc([N+](=O)[O-])c2)c1 [Compound 23, 6,6-dimethyl-1-[3-[(3-nitrophenyl)methoxy]-phenyl]-1,3,5-triazine-2,4-diamine chloride]	1.21e-09 M	7.02%	
CCCC(c1cc(C(C)(C)C)c(O)cc1C)c1cc(C(C)(C)C)c(O)cc1C [Compound 24, 2-tert-butyl-4-[1-(5-tert-butyl-4-hydroxy-2-methylphenyl)butyl]-5-methylphenol]	> 1e-06 M	8.54%	

Compound	IC50 (PAE cells; Sus scrofa, PAE cells)	cytotoxicity (in vitro)	further results
Oc1ccc(Cl)cc1Cc1cc(Cl)cc(Cc2cc(Cl)ccc2O)c1O [Compound 25, 4-chloro-2,6-bis[(5-chloro-2-hydroxyphenyl)methyl]phenol]	2.27e-10 M	9.57%	
CN(C)CCC(=O)[C@@]1(O)CC[C@H]2[C@@H]3CC=C4C[C@@H](O)CC[C@]4(C)[C@H]3CC[C@@]21C [Compound 27, 1-[(3S,8R,9S,10R,13S,14S,17R)-3,17-dihydroxy-10,13-dimethyl-1,2,3,4,7,8,9,11,12,14,15,16-dodecahydrocyclopenta[a]phenanthren-17-yl]-3-(dimethylamino)propan-1-one chloride]	> 1e-06 M	7.9%	
Nc1nc(N)c(-c2cccc(C(F)(F)F)c2)c(Cc2cccc(C(F)(F)F)c2)n1 [Compound 28, 5-[3-(trifluoromethyl)phenyl]-6-[[3-(trifluoromethyl)phenyl]methyl] pyrimidine-2,4-diamine]	7.41e-11 M	8.65%	
O=C(c1ccc([N+](=O)[O-])cc1)C(Br)C(Br)c1ccnc2ccccc12 (centres unmarked) [Compound 29, 2,3-dibromo-1-(4-nitrophenyl)-3-quinolin-4-ylpropan-1-one]	> 1e-06 M	9.78%	
Cc1c2cc[n+](CCN3CCCCC3)cc2c(C)c2c1[nH]c1ccc(O)cc12 [Compound 30, 5,11-dimethyl-2-(2-piperidin-1-ylethyl)-6H-pyrido[4,3-b]carbazol-2-ium-9-ol acetate]		8.81%	IC50 (PAE cells; Sus scrofa, PAE): 9.27e-10 M
CC(=O)O/C(=C1\C[C@H]2[C@@H]3CC=C4C[C@@H](OC(C)=O)CC[C@]4(C)[C@H]3CC[C@]2(C)C1=O)C(F)(F)F [Compound 31, [(3S,8R,9S,10R,13S,14S,16E)-16-(1-acetyloxy-2,2,2-trifluoroethylidene)-10,13-dimethyl-17-oxo-2,3,4,7,8,9,11,12,14,15-decahydro-1H-cyclopenta[a]phenanthren-3-yl]acetate]	0.000506 M	7.62%	
CS(=O)(=O)Nc1ccc(Nc2c3ccccc3nc3ccccc23)cc1 [Compound 32, N-[4-(acridin-9-ylamino)phenyl]-methanesulfonamide; methanesulfonic acid]	> 1e-06 M	6.82%	
Cc1cc(Cc2cc(C)cc(C(C)(C)C)c2O)c(O)c(Cc2cc(C)cc(C(C)(C)C)c2O)c1 [Compound 33, 2-tert-butyl-6-[[3-[(3-tert-butyl-2-hydroxy-5-methylphenyl)methyl]-2-hydroxy-5-methylphenyl]methyl]-4-methylphenol]	2.8e-10 M	7.44%	
CCC1(OC(=O)CN)C(=O)OCc2c1cc1n(c2=O)Cc2cc3ccccc3nc2-1 (centres unmarked) [Compound 34, 4-Ethyl-3,14-dioxo-3,4,12,14-tetrahydro-1H-pyrano[3′,4′:6,7]indolizino[1,2-b]quinolin-4-yl aminoacetate hydrochloride]		10.2%	IC50 (PAE cells; Sus scrofa, PAE): 9.92e-12 M
COc1cccc2c(O)c3c(c(N)c12)C(=O)C1=C(C[C@@](O)(C(C)=O)C[C@@H]1OC1CC(N)C(O)C(C)O1)C3=O (stereo partly drawn) [Compound 35, (1S,3S)-3-acetyl-11-amino-1-(4-amino-5-hydroxy-6-methyloxan-2-yl)oxy-3,6-dihydroxy-10-methoxy-2,4-dihydro-1H-tetracene-5,12-dione hydrochloride]	2.41e-11 M	7.98%	
CCC(=O)OCN1C(=O)C=CC1=O [Compound 39, (2,5-dioxopyrrol-1-yl)methyl propanoate]		8.54%	RTK inhibitory activity (in words) (KDR(VEGFR2)): showed RTK inhibitory activity; type of inhibition (endothelial cell growth and/or tube formation) (endothelial cells; 1 μM): tube formation
COc1cc2cc(c1Cl)N(C)C(=O)CC(OC(=O)C(C)C)C1(C)OC1C(C)C1CC(O)(NC(=O)O1)C(OC)/C=C/C=C(\C)C2 (centres unmarked) [Compound 56, Maytansinol isobutyrate or 4,24-Dioxa-9,22-diazatetracyclo[19.3.1.110,14.03,5] hexacosane, maytansine deriv.]		7.52%	type of inhibition (endothelial cell growth and/or tube formation) (endothelial cells): tube formation
OC(c1cc(-c2ccccc2)nc2c1ccc1ccccc12)C1CCCCN1 (centres unmarked) [Compound 66, (2-phenylbenzo[h]quinolin-4-yl)-piperidin-2-ylmethanol]	4.12e-10 M	13.1%	
[benzylsulfanyl(sulfoniumylidene) methyl]-(1-pyridin-2- ylethylideneamino)azanide; chlorocopper [Compound 65]			Bioactivity (endothelial cells; HTS at 1 μM final concentration): 3; IC50 (PAE cells; PAE cells): 1.09e-11 M; Apoptosis PAE (RFU) (PAE; PAE cells): 2.227 RFU
azidobenzene; 1H-indene; prop-1-en-2- ylbenzene [Compound 49]			Bioactivity (endothelial cells): 2; Apoptosis PAE (RFU) (PAE): 1.235 RFU
